US20240252463A1, “METHODS OF TREATING FIBROTIC PATHOLOGIES” (Mayo Foundation for Medical Education and Research, priority 2018, published 2024)
Read-outs that look alike come from different tables or passages of the source.

Key:
TAZ4SA = experiment: Gene expression and ECM deposition in NIH-3T3 cells expressing constitutively active mutant TAZ (TAZ4SA); format: cell-based, mouse; details: doxycycline-induced TAZ4SA NIH-3T3
Method: FIGS. 8A-8B DHX inhibition of pro-fibrotic gene expression and matrix deposition requires inhibition of YAP/TAZ. […] TAZ4SA expression was induced with 100 ng/mL doxycycline for 72 hours prior to treatment with 10 μM or the indicated concentration of dihydrexidine. For gene expression experiments efficacy of DHX in NIH-3T3 cells was validated with by DHX (10 μM) effect on TGFβ (24 hour, 2 ng/mL) induced gene expression. N=2 for all.
Cell culture: Cells were all maintained in EMEM (ATCC) containing 10% FBS, unless otherwise noted. IMR-90 embryonic lung fibroblasts and NIH-3T3 mouse fibroblasts were purchased from ATCC. Doxycycline-inducible Tet-On NIH3T3 expressing TAZ4SA or control empty vector were described previously. Normal Human Alveolar Epithelial Cells (NHAEpCs), Normal Human Microvascular Endothelial Cells (NHMVECs), Normal Human Lung Fibroblasts (NHLFs), and Human Dermal Fibroblasts (HDFs) were purchased from Lonza and were cultured in the proprietary media per Lonza's recommendation. Human Adult Cardiac Fibroblasts (HACFs) and Hepatic Stellate Cells (HSCs) were purchased from ScienCell and were cultured in the proprietary media per ScienCell's recommendation. Hepatocytes were purchased from Samsara and were cultured in the proprietary media per Samsara's recommendation. […]

αSMA = αSMA intensity (fibroblast activation) in IPF patient-derived lung fibroblasts + TGFβ; format: cell-based, human; details: Homo sapiens, SMA, 1 μM + TGFβ, treated for 72 hours
cAMP = cAMP Assay (cAMP-Glo) in lung fibroblasts; format: cell-based, human; details: IPF patient-derived fibroblasts, 20 minutes, DHX 10 μM
Method: cAMP Assay: IPF patient derived fibroblasts were plated in EMEM containing 10% FBS overnight. […] 20 minutes prior to cell lysis media was removed and cells were treated with “induction buffer” containing nonselective phosphodiesterase inhibitors and the indicated concentration of compound(s). Luminescence was measured on a Flexstation 3 (Molecular Devices) plate reader.

[1] = tested on: IPF patient derived fibroblasts; experiment: Traction Force Microscopy of IPF patient derived fibroblasts; format: cell-based, human; details: IPF fibroblasts on 6.4 kPa matrices
Method: Traction Force Microscopy: Traction analysis was conducted as previously described. Briefly, polyacrylamide substrates with shear moduli of 6.4 kPa were prepared, and fluorescent sulfate-modified latex microspheres (0.2 μm, 505/515 ex/em) (FluoSpheres, Life Technologies) were conjugated to the gel surfaces after treatment with 1 mg ml^−1 of dopamine hydrochloride (Sigma-Aldrich) in 50 mM HEPES solution (pH 8.5). IPF patient derived fibroblasts were plated on the gels overnight and treated as indicated before traction force measurements. Images of gel surface-conjugated fluorescent beads were acquired for each cell before and after trypsinization using a Nikon ECLIPSE Ti microscope at ×10 magnification. Traction forces were estimated by measuring bead displacement fields and computing corresponding traction fields using TractionsForAll (freely distributed program that calculates 2-D tractions exerted by an adherent cell on its substrate).

human dermal fibroblasts = experiment: Profibrotic gene expression in human dermal fibroblasts +/- TGFβ; format: cell-based; details: 24 hours +/− 2 ng/mL TGFβ
Method: Human dermal fibroblasts treated for 24 hours+/−2 ng/mL TGFβ and D1 agonists: DHX and A68930 prior to RNA isolation. N=2. For all other in vitro experiments, cells were treated as indicated prior to RNA isolation using RNeasy Plus Mini Kit (Qiagen) according to manufacturer's instructions. Isolated RNA (250 ng) was then used to synthesize cDNA using SuperScript VILO (Invitrogen). Quantitative PCR was performed using FastStart Essential DNA Green Master (Roche) and analyzed using a LightCycler 96 (Roche). Data are expressed as a fold change by ΔΔCt relative to GAPDH. For in vivo experiments, tissue was immediately frozen, and stored at −80° C. RNA isolation, cDNA synthesis, and qPCR analysis were performed as above.

YAP/TAZ = YAP/TAZ nuclear localization in IMR-90 and other mesenchymal cells (cardiac, dermal fibroblasts, hepatic stellate cells); format: cell-based, human; details: FIG. 37B

Oc1cc2c(cc1O)[C@H]1c3ccccc3CN[C@@H]1CC2 (racemic) [Dihydrexidine, dihydrexidine]
profibrotic gene expression and extracellular matrix accumulation in TAZ4SA cells (TAZ4SA): had no effect on profibrotic gene expression or extracellular matrix accumulation
activity at 1 µM (αSMA; patient sample IPF-1, read-out: αSMA intensity (% of DMSO control) IPF-1): 4.98%
activity at 1 µM (αSMA; patient sample IPF-2, read-out: αSMA intensity (% of DMSO control) IPF-2): 0.0469%
activity at 1 µM (αSMA; patient sample IPF-3, read-out: αSMA intensity (% of DMSO control) IPF-3): 0.513%
activity at 1 µM (αSMA; patient sample IPF-4, read-out: αSMA intensity (% of DMSO control) IPF-4): 12%
cAMP (cAMP): elevated cAMP
contractile forces (traction force microscopy) [1]: significantly and dose-dependently reduced the contractile forces
profibrotic gene expression in human dermal fibroblasts (human dermal fibroblasts): blocks profibrotic gene expression
YAP/TAZ nuclear localization in mesenchymal cells derived from uterine fibroids (YAP/TAZ): marginal inhibition of YAP/TAZ nuclear localization
